Results as given in patent US9725490B2, “ERAP1-derived peptide and use thereof” (TOKUSHIMA UNIVERSITY, priority 2011, dated 2017).

Assays:
Format in all cases: cell-based, human
[1] = tested on: transcriptional activity of ERE-ERα; assay: ERE-luciferase reporter assay in KPL-3C cells; conditions: 10 nM E2 24 hours
Method: KPL-3C cells temporarily transfected with an ERE-luciferase reporter vector were treated with the ERAP1-peptide in the concentrations shown in the figure. Then, immediately, the cells were stimulated with 10 nM E2 for 24 hours. TAM indicates the tamoxifen treatment. […] KPL-3C cells were treated for 24 hours with the ERAP1-peptide and/or E2. Then, the nuclear fraction was immunoprecipitated with anti-ERα antibody or an anti-PHB2 antibody.

[2] = tested on: ZR-75-1, HCC1500, BT474, YMB-1, KPL-1, HBC4; assay: E2-dependent cell proliferation assay, other ERα/ERAP1-positive breast cancer cell lines; conditions: 10 μM, 10 nM E2 24 hours
Method: FIG. 7-2 is a diagram illustrating that ERAP1-peptide treatment suppresses ERα-dependent cell proliferation of breast cancer cell lines. […] Various ERα/ERAP1-positive breast cancer cell lines shown in the figure were treated with 10 μM of the ERAP1-peptide or the scramble peptide or 10 nM tamoxifen. Then, immediately, the cells were stimulated with 10 nM E2 for 24 hours.
Using Cell-Counting Kit-8 (CCK-8, Dojindo, Kumamoto, Japan), the cell proliferation assay was performed. The cells were harvested, and plated in 2×10^4 cells/well on a 48-well plate, and maintained at 37° C. in a humidified incubator. At the indicated time points, the cells were added with a CCK-8 solution diluted to 1:10, and incubated for 1 hour. Then, the absorbance at 450 nm was measured and the number of living cells in each well was calculated.

[3] = tested on: ERα interaction with IGF-1Rβ, Shc, PI3K; Akt and MAPK phosphorylation; assay: Non-genomic activation route, immunoprecipitation/immunoblotting, MCF-7
Method: MCF-7 cells were treated with the ERAP1-peptide. Then, immediately, the cells were stimulated with 10 nM E2 for 24 hours. Then, the cytoplasm fraction was immunoprecipitated with anti-ERα antibody. […] MCF-7 cells were treated with the ERAP1-peptide. Then, immediately, the cells were stimulated with 10 nM E2 for 24 hours. Then the cytoplasm fraction was immunoprecipitated with anti-ERα antibody or anti-PHB2 antibody.
FIG. 10-2 is a diagram illustrating that the ERAP1-peptide regulates E2-induced non-genomic activation route via IGF-1Rβ and Shc. […] BT-474 cells were treated with the ERAP1-peptide and/or E2 for 24 hours. Then, the cytoplasm fraction was immunoprecipitated with anti-ERα antibody.
As described in the item of “Western blotting analysis”, the cells were lysed with a 0.1% NP-40 lysis buffer. The cell lysate was precleaned using normal IgG and rec-Protein G Sepharose 4B (Zymed, San Francisco, Calif., USA) at 4° C. for 3 hours. After centrifuge separation, the supernatant was incubated in the presence of an anti-ERAP1 antibody, an anti-PHB2 antibody and an anti-ERα antibody at 4° C. for 6 hours. Then, the supernatant was incubated in the presence of rec-Protein G Sepharose 4B at 4° C. for 1 hour, to precipitate an antigen-antibody complex. The immunoprecipitated protein complex was washed with a lysis buffer three times, and separated by SDS-PAGE. Then, Western blotting analysis was performed by the method described previously (Kim J W, et al. Cancer Sci. 2009; 100: 1468-78.).

[4] = tested on: HCC1395 cells; assay: Proliferation of ERα-positive/ERAP1-negative HCC1395 cells; conditions: 10 nM E2 96 hours
Method: FIG. 21 is a diagram illustrating that […] was translocated into the nucleus by E2 stimulation in ERAP1-negative breast cancer cell lines, HCC1395 cells. […] Then, immediately, the cells were stimulated with 1 μM E2 for 24 hours. The cells were fractionated into cytoplasm and nuclear fractions by specific gravity centrifugation. Then, each fraction was subjected to immunoblotting analysis using an anti-PHB2 antibody. Lamin and Tubulin are markers for […]. […] HCC1395 cells were treated with 5 μM ERAP1-peptide. Then, immediately, the cells were stimulated with 1 μM E2 for 24 hours. Then, the nuclear fraction was immunoprecipitated with anti-ERα antibody. Furthermore, with respect to the obtained sample, the immunoprecipitate was subjected to immunoblotting analysis with the antibodies shown in the figure. […] Then, immediately the cells were stimulated with 10 nM E2 for 96 hours.
The proliferation assay of HCC1395 cells was evaluated using Cell-Counting Kit-8 (CCK-8, Dojindo, Kumamoto, Japan). First, HCC1395 cells were seeded in 2×10^4/well in RPMI culture medium containing 10% FBS and 1% antibiotic/antimycotic solution and not containing phenol red on a 48-well plate, and stood in a CO2 incubator. […] Then, 100 μl from each well was moved to a 96-well plate, and the absorbance at 450 nm was measured with a microplate reader.

[5] = tested on: SK-BR-3 cells; assay: Proliferation of ERα negative SK-BR-3 cells; conditions: 24 hours and 48 hours
Method: FIG. 40 is a diagram illustrating the results of MTT assay by which proliferation suppression effect of the ERAP1-peptide in ERα negative breast cancer cell lines, SK-BR-3 cells was evaluated. SK-BR-3 cells were treated with the ERAP1-peptide (Peptide) or the ERAP1-scramble peptide (scrPeptide) for 24 hours or for 48 hours.
Cell proliferation assay was performed using Cell-Counting Kit-8 (CCK-8, Dojindo, Kumaamoto, Japan). The cells were harvested, and plated in 2×10^4 cells/well on a 48-well plate, and maintained in a humidified incubator (37° C.). 10 fold-diluted CCK-8 solution was added at indicated time points and the cells were incubated for 1 hour. Then, the absorbance at 450 nm was measured and the number of living cells was calculated.

CSCC[C@H](NC(=O)[C@H](CCC(N)=O)NC(=O)[C@H](CCCNC(=N)N)NC(=O)[C@H](CCCNC(=N)N)NC(=O)[C@H](CCCNC(=N)N)NC(=O)[C@H](CCCNC(=N)N)NC(=O)[C@H](CCCNC(=N)N)NC(=O)[C@H](CCCNC(=N)N)NC(=O)[C@H](CCCNC(=N)N)NC(=O)[C@H](CCCNC(=N)N)NC(=O)[C@H](CCCNC(=N)N)NC(=O)[C@H](CCCNC(=N)N)NC(=O)[C@@H](N)CCCNC(=N)N)C(=O)N[C@@H](CC(C)C)C(=O)N[C@@H](CO)C(=O)N[C@@H](CC(=O)O)C(=O)N[C@@H](CC(C)C)C(=O)N[C@H](C(=O)N[C@@H](CC(C)C)C(=O)N[C@@H](CCC(N)=O)C(=O)N[C@@H](CC(C)C)C(=O)N[C@@H](CCCNC(=N)N)C(=O)N[C@@H](CCC(N)=O)C(=O)N[C@@H](CCCNC(=N)N)C(=O)O)[C@@H](C)O [ERAP1-peptide]
transcriptional activity of ERE-ERα [1]: suppression for the transcriptional activity of ERE-ERα was recognized
E2-dependent cell proliferation [2]: remarkable E2-dependent proliferation suppression effect in all of the cells
binding of ERα and PI3K ([3]; cytoplasm fraction, 24 hours): inhibit the binding of ERα and PI3K
binding of ERα and Shc and of ERα and IGF-1Rβ ([3]; cytoplasm fraction, 24 hours): inhibited the binding of ERα and Shc and the binding of ERα and IGF-1Rβ
phosphorylation of Ser473 of Akt and phosphorylation of MAPK ([3]; time course to 24 hours): inhibited respectively within 3 hours after addition of the ERAP1-peptide, and the suppression was maintained even after 24 hours
cell proliferation [4]: not recognized
cell proliferation [5]: had suppression effect on the cell proliferation in dose-dependent manner both at 24 hours and 48 hours
